Data from paper PMC3947011 (ACS chemical biology, 2013).
Where two headings read alike, the source gives them in different places.

What was measured:
Type in all cases: cell-based
E. coli (ATCC 25922) = system: E. coli (ATCC 25922)
[1] = system: K. pneumoniae (ATCC 13383)
[2] = system: P. aeruginosa (ATCC 27853)
[3] = system: Methicillin-resistant S. epidermidis (RP62A)
[4] = system: Vancomycin-resistant E. faecalis (ATCC 700802)
[5] = system: Methicillin-resistant S. aureus (ATCC 33591)

Pexiganan
MIC E. coli (E. coli (ATCC 25922); complete growth inhibition after 24 h, highest tested 25 μg/mL): 8 µg/mL
MIC E. coli (E. coli (ATCC 25922); value in parentheses): 3 µM
MIC K. pneumoniae ([1]; 24 h): 8 µg/mL
MIC K. pneumoniae ([1]; value in parentheses): 3 µM
MIC P. aeruginosa ([2]; 24 h): 16 µg/mL
MIC P. aeruginosa ([2]; value in parentheses): 6 µM
MIC S. epidermidis ([3]; 24 h): 8 µg/mL
MIC S. epidermidis ([3]; value in parentheses): 3 µM
MIC E. faecalis ([4]; 24 h): 32 µg/mL
MIC E. faecalis ([4]; value in parentheses): 12 µM
MIC S. aureus ([5]; 24 h): 16 µg/mL
MIC S. aureus ([5]; value in parentheses): 6 µM
